The results in this text go back to US20220145406A1, “BIOMARKERS, AND USES IN TREATMENT OF VIRAL INFECTIONS, INFLAMMATIONS, OR CANCER” (ABIVAX, priority 2018, published 2022).

One assay has as its system CD4+ T cells. Kind of assay: RNAseq differential alternative splicing analysis (SUPPA) of cellular genes. It counts as cell-based, human. On the set-up: key to differential splicing Event type, gene ZNF177 / differential splicing Event type, gene FGF22 / differential splicing Event type, gene AL157955.2 / differential splicing Event type, gene TMEM147 / differential splicing Event type, gene ATIC / differential splicing Event type, gene CDRT15 / differential splicing Event type, gene WDR72 / differential splicing Event type, gene GNRHR2 / differential splicing Event type, gene ZNE584 / differential splicing Event type, gene LINC01869 / differential splicing Event type, gene LINC01119: Alternative 5′ splice site (A5); Alternative 3′ splice site (A3); Alt exons: Alternative first and last exons (Altexons); Retained intron (RI). The method, then: (§1) Buffy coats from HIV-negative individuals were obtained from the local blood donation center in Centre de transfusion sanguine Montpellier. Human peripheral blood mononuclear cells (PBMCs) were isolated by Ficoll (Histopaque, Sigma) gradient centrifugation. CD4+ and CD8+ T cells were purified from PBMCs after Ficoll gradient centrifugation by Human CD4+ beads positive selection and CD8+ beads positive selection, respectively (Miltenyi). PBMCs, CD4+ and CD8+ T cells were grown at 37° C. and 5% CO2 to a density of 1.5×10^6 cells/ml in RPMI GlutaMAX medium (Life Technologies) supplemented with 10% fetal calf serum (FCS) (Thermo Fisher), 40 U/ml of IL2 (PeproTech) and 5 μg/mL of PHA (Roche) for 2 days. Three days later, cells were resuspended at 1.5×10^6 cells/ml in RPMI supplemented with 10% FCS and 40 U/ml IL2 and separated into two parts (infected and uninfected cells). Cells were infected with 80 ng of p24/106 cells of the YU-2 strain for 4 to 6 hours and then rinsed with PBS before medium renewal.
Both infected and uninfected cells were then centrifuged and resuspended to a density of 1.5×10^6 cells/ml in medium supplemented with diluted drug solubilized in DMSO (Sigma) to a final 0.05% DMSO concentration or antiretroviral compounds according to the manufacturer's instructions. Cells were treated for 6 days with a medium renewal at day 3. HIV p24 titration was performed by ELISA from cell culture supernatants with Innotest kit (Ingen) according to the manufacturer's instructions.
A full-detailed report describing the complete analysis was submitted to Gene Expression Omnibus (GEO, https://www.ncbi.nlm.nih.gov/geo/query/acc.cgi?acc=GSE116073). Total RNA extraction was performed according to the Qiagen miRNeasy □ kit. RNA concentrations were determined using Qubit[…] fluorometric quantification and purity by the RNA 6000 Bioanalyzer kit (Agilent). RNA-Seq libraries were constructed with the TruSeq stranded mRNA sample preparation (low-throughput protocol) kit from Illumina, according to the manufacturer's instructions. Aliquots of 1.2 μg of total RNA were used for the construction of the libraries. The final cDNA libraries were validated with a Fragment Analyzer (Advanced Analytical, Ankeny, Iowa) and quantified with a KAPA qPCR kit (Kapa Biosystems, Wilmington, Mass.). On the 8 sequencing lanes of a flow cell V4, the 32 libraries were pooled in equal proportions by sets of 4 libraries per lane, denatured with NaOH and diluted to […] before clustering. Cluster formation and primer hybridization and single-end read, 50-cycle sequencing were performed on the cBot and HiSeq 2500 (Illumina, San Diego, Calif.), respectively. Image analysis and base calling were performed using the HiSeq Control Software with the Real-Time Analysis component. Demultiplexing was performed using Illumina's sequencing analysis software. The quality of the data was assessed using FastQC from the Babraham Institute and the Illumina software SAV (Sequence Analysis Viewer). Potential contaminants were investigated with the FastQ Screen software from the Babraham Institute.
To investigate splicing activity we used SUPPA v2.0.0, a tool developed in Python 3.4 and especially designed for this approach. To study splicing across multiple conditions, we performed three modular operations that were run separately. The first step was to generate events from the annotation file commonly named the GTF file (general […]). The second step was to quantify event inclusion levels (PSIs) from our samples. Finally, differential splicing across multiple conditions was calculated for all replicates.
To generate the different alternative splicing events from an input annotation file (GTF format), the method reads transcript and gene information solely from the “exon” lines in the GTF. It then generates the events and outputs an ‘ioe’ file, which contains the relationship between each event and the transcripts that share this particular event. […]

Another assay has as its system HIV-1 YU-2 strain. The assay can be described thus: HIV-1 replication measured by p24 production in infected PBMCs. It counts as cell-based. The following applies: Human immunodeficiency virus 1, PBMC; 5 μM ABX464; PBMCs from 6 donors infected with YU-2 strain; read-out: inhibition of viral replication (p24 production). The method, then: as §1, with “Three days later, cells were resuspended at 1.5×10^6 cells/ml in RPMI supplemented with 10% FCS and 40 U/ml IL2 and separated into two parts (infected and uninfected cells). Cells were infected with 80 ng of p24/106 cells of the YU-2 strain for 4 to 6 hours and then rinsed with PBS before medium renewal.” left out
PBMCs from 6 HIV-negative donors were infected with the YU-2 strain, followed by treatment with ABX464. […] To highlight potential new splicing events induced by ABX464, we used a custom bioinformatics pipeline with the main step involving the assembly of putative transcripts from targeted RNA sequencing reads to construct contigs (Illumina paired-end 2×75 bp) (FIGS. 6 A and B). […] The HIV profiling datasets used in our analysis yielded high sequence coverage (2 to 30 million reads for the 9 kb genome), allowing deep quantification of HIV splice variants.

Where [1] appears, read: ABX464_NI_VS_DMSO_NI, uninfected CD4 T cells.

As a reminder, the inhibition is the share of the control response that was lost under treatment.

`FC(F)(F)Oc1ccc(Nc2ccc3cccc(Cl)c3n2)cc1` [ABX464, 8-chloro-N-(4-(trifluoromethoxy)phenyl)quinolin-2-amine]: in the assay on CD4+ T cells (setting [1]), the “differential splicing Event type, gene AL157955.2” value is reported as “A3”; the “differential splicing Event type, gene ATIC” value is on record as “A5”; the “differential splicing Event type, gene CDRT15” value is reported as “A5”; the “differential splicing Event type, gene FGF22” value is listed as “A3”. In the assay with CD4+ T cells (setting [1]), the “differential splicing Event type, gene GNRHR2” value was “RI”; the “differential splicing Event type, gene LINC01119” value was “A3”; the “differential splicing Event type, gene LINC01869” value is “A3”; the “differential splicing Event type, gene TMEM147” value is on record as “RI”. Also, in the assay on CD4+ T cells (setting [1]), the “differential splicing Event type, gene WDR72” value is recorded as “A5”; the “differential splicing Event type, gene ZNE584” value was “A3”; the “differential splicing Event type, gene ZNF177” value is “A3”. The “number of common and differential splicing events” value in the assay on CD4+ T cells (infected and uninfected CD4+ T cells treated with ABX464, ΔPSI >0.4, p <0.05) was less than 10 events. In the assay on HIV-1 YU-2 strain, the inhibition at 5 µM is greater than 70%.
